# Source: patent publication US8846745B2, “Use of an indazolemethoxyalkanoic acid for reducing triglyceride, cholesterol and glucose levels” (Aziende Chimiche Riunite Angelini Francesco A.C.R.A.F. …, priority 2006, dated 2014)
# Columns and labels:
# IL-12 = conditions: human monocytes, LPS 100 ng/ml for 4 hours, bindarit 300 μM tested as sodium salt
# Description: The capacity of bindarit to inhibit the expression of IL-12 by human monocytes stimulated with lipopolysaccharide (LPS) was evaluated.
# Human monocytes were used, which were isolated from healthy donors by centrifugation on a Ficoll gradient and purified by two successive centrifugation steps, followed by a step of isolation by means of an immunomagnetic system of negative cell separation (MACS, Miltenyi Biotech), using specific antibodies.
# The cells were stimulated with LPS (100 ng/ml) for 4 hours in the presence or absence of bindarit (300 μM). The product was tested in the form of the sodium salt obtained by salification with equimolar sodium hydroxide and subsequent dilution in the medium used. The total RNA was extracted from cells using TRizol (Invitrogen Life Technologies) according to manufacturer's instructions, reverse-transcribed and prepared by GeneChip hybridization.
# [1] = tested on: obese Zucker rats (fa/fa); conditions: standard rodent diet supplemented with 0.5% bindarit, blood at 6, 16, 28 and 40 weeks old
# Description: The activity of bindarit was tested in an experimental model in rats.
# The study was performed on rats 5 weeks old on arrival, of the Zucker strain homozygous for the “fa” allele (fa/fa), insulin-resistant, hyperinsulinaemic and obese, and on rats of the same age of the heterozygous Zucker control strain (fa/+), phenotypically normal, insulin-sensitive and slim.
# At six weeks old, the obese Zucker rats were divided into two groups, one of which was fed with a standard rodent diet, and the other with a standard rodent diet supplemented with 0.5% bindarit.
# The slim Zucker rats of the same age were used as controls and fed with a standard rodent diet.
# Blood samples were taken from the animals periodically (at 6, 16, 28 and 40 weeks old) for enzymatic measurement of the circulating levels of triglycerides, cholesterol and glucose.
smiles,measurement,setting,value
CC(C)(OCc1nn(Cc2ccccc2)c2ccccc12)C(=O)O [bindarit],reduction of the levels of LPS-induced IL-12 specific mRNA,IL-12,about 100 fold
same,circulating levels of cholesterol,[1],significant reduction
same,circulating levels of triglycerides,[1],significant reduction
same,glycaemia (circulating glucose),[1],significant reduction
